Results taken from patent publication US9388120B2, “Nitrogen and hindered phenol containing dual functional macromolecular antioxidants: synthesis, performances and applications” (Polnox Corporation, priority 2005, dated 2016).

What was measured:
[1] = Oxidative induction time (OIT) by DSC in polyol ester based base stock oil; conditions: antioxidant at 200 ppm in polyester based base stock; DSC at 200° C., oxygen at 20 ml/min
Experimental: (§1) Macromolecules V and A were tested for their performance in lubricant oils and polymers. The macromolecules were mixed in oil with stirring at 60° C. for 5-15 mins at 200 ppm in petroleum based Group II base stock and polyol based Group V base stock oils. The performance of these antioxidants were evaluated in lubricant base oil stocks including Group II using the DSC technique for determining their oxidation induction times measured in minutes (OIT) at 200° C. The OITs of the antioxidants having structures V and A were compared with commercial antioxidants [L57: Ciba's Irganox L57, 6PPD: N-hexyl phenyl-1,4-phenylene diamine CAS #793-24-8)].
The summary of performance of antioxidants I, II, V, X, XVIII and A and their comparison with commercial antioxidants L 57 and 6PPD in synthetic polyol ester based oil is shown in Table 1. The macromolecules were mixed in oil with stirring at 60° C. for 5-15 mins at 200 ppm in petroleum based Group II base stock and polyol based Group V base stock oils.

[2] = Oxidative induction time (OIT) by DSC in Group II lubricating base oil; conditions: 200 ppm; for OIT performance (FIG. 2) compared with commercial antioxidants: GII base oil, DSC at 200° C., versus L57 and 6PPD
Experimental: Macromolecule A was mixed with oil at 60° C. for 5-15 minutes at 200 ppm in petroleum based group II base stock oil and polyol based Group V base stock oils. It was tested using differential scanning calorimetry (DSC). Its Oxidative Induction Time (OIT) was also compared with commercially used antioxidants 2,6-di-tert-butyl-phenol, Naugalube APAN (PANA) and Vanlube 81 (DODP).
as §1

[3] = Solubility in Group II lubricant oil base stock; format: physicochemical; conditions: 10 g in 90 g Group II lubricant oil base stock, stirred 15 mins at 60° C.; industry standard 1-2%
Experimental: [drawing 67] 10 g of the antioxidant V was added to 90 g of Group II lubricant oil base stock in a beaker. […] This solubility is much higher than the typical industry standards of 1-2%.

solubility in Group II base stock [3]	Structure (SMILES)	OIT @ 200 ppm [1]	OIT performance (FIG. 2) compared with commercial antioxidants [2]	protection of lubricating oils against oxidation (OIT, FIG. 1) compared with commercial antioxidants ([2]; Group II lubricating oil, DSC, versus 2,6-di-tert-butyl-phenol, Naugalube APAN (PANA), Vanlube 81 (DODP))
–	CC(C)CC(C)Nc1ccc(Nc2ccccc2)cc1 (centres unmarked) [Antioxidant 6PPD, N-hexyl phenyl-1,4-phenylene diamine, reference compound]	22 min	–	–
–	Cc1cc(CNc2ccc(Nc3ccccc3)cc2)cc(C(C)(C)C)c1O [X]	28 min	–	–
–	CC(C)(C)c1cc(CNc2ccc(Nc3ccccc3)cc2)c(O)c(C(C)(C)C)c1 [A]	37 min	superior performance	superior
homogenous solution	CC(C)CC(C)N(Cc1cc(C(C)(C)C)c(O)c(C(C)(C)C)c1)c1ccc(Nc2ccccc2)cc1 (centres unmarked) [V]	36 min	superior performance	–
